Where two headings read alike, the source gives them in different places.

For 12 compounds, inhibition results are on record in article PMC9516332 (Frontiers in Oncology, 2022).

Common to all, as to experiment: Kinase panel profiling at 1 µmol/L (MSA or IMAP), percentage inhibition
Holding throughout (format): biochemical

The target of assay [1] is panel of 255 wild-type kinases (Homo sapiens, UniProt Q16654). Conditions: read-out: %-inhibition at 1 µmol/L, PDHK4.
Assay [2] deals with T1, panel of 255 wild-type kinases (Homo sapiens, UniProt P29322).
T1 sequence (P29322 28-1005): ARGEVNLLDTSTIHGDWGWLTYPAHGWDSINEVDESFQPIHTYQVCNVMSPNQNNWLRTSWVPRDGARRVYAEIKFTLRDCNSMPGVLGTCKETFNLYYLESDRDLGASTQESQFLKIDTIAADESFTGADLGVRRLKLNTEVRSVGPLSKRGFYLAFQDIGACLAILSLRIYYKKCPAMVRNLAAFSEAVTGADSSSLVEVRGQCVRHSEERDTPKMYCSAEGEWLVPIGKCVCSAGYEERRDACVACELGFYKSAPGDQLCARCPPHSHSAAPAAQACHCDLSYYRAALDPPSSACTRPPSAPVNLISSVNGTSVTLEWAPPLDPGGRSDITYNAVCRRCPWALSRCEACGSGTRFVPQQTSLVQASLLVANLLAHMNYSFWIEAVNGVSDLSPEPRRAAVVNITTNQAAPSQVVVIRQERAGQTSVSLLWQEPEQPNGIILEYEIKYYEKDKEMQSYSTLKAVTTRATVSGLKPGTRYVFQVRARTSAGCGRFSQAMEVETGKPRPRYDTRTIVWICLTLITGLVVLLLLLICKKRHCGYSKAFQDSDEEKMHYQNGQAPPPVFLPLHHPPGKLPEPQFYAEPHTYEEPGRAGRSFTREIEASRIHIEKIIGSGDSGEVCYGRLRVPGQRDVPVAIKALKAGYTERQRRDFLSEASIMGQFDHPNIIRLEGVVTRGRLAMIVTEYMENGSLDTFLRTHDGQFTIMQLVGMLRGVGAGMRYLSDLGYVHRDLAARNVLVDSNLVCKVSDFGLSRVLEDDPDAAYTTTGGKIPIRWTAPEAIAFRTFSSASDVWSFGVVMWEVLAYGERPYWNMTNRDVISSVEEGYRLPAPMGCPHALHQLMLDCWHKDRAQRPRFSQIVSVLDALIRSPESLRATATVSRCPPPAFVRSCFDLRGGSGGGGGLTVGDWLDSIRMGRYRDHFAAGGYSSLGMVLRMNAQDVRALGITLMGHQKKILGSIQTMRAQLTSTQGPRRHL
Conditions: read-out: %-inhibition at 1 µmol/L, EPHA8.

The target in assay [3] is panel of 255 wild-type kinases (Homo sapiens, UniProt Q15208). Conditions: read-out: %-inhibition, NDR1.
In assay [4] the target is T2, panel of 255 wild-type kinases (Homo sapiens, UniProt P54753).
T2 sequence (P54753 34-998): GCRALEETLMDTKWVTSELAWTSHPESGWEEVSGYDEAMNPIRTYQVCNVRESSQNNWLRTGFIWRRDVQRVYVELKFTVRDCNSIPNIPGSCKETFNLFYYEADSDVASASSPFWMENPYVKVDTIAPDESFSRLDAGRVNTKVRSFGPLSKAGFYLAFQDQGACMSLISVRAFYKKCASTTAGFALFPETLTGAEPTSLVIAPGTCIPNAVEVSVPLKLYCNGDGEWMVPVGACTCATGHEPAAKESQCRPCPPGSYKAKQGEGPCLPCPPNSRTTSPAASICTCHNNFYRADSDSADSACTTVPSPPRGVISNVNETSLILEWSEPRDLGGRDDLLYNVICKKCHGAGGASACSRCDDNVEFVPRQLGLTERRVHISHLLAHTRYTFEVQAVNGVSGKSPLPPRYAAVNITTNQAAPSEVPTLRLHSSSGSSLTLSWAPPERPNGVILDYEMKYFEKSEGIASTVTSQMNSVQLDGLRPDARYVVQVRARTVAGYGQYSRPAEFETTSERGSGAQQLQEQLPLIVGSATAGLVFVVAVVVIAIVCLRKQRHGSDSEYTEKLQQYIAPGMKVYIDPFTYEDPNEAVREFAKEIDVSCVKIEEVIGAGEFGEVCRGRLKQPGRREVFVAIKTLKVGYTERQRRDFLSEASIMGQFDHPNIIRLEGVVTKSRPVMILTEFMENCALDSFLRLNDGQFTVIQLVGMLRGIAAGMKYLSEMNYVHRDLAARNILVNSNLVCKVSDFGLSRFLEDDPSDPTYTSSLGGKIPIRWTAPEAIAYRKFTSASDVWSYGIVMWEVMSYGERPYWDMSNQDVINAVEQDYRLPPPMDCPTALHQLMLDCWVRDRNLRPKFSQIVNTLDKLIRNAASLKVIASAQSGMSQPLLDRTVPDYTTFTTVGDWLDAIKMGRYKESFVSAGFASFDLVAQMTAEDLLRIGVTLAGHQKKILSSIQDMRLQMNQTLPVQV
Conditions: read-out: %-inhibition at 1 µmol/L, EPHB3.

The target of assay [5] is T3, panel of 255 wild-type kinases (Homo sapiens, UniProt Q9NWZ3).
T3 sequence (Q9NWZ3 1-460): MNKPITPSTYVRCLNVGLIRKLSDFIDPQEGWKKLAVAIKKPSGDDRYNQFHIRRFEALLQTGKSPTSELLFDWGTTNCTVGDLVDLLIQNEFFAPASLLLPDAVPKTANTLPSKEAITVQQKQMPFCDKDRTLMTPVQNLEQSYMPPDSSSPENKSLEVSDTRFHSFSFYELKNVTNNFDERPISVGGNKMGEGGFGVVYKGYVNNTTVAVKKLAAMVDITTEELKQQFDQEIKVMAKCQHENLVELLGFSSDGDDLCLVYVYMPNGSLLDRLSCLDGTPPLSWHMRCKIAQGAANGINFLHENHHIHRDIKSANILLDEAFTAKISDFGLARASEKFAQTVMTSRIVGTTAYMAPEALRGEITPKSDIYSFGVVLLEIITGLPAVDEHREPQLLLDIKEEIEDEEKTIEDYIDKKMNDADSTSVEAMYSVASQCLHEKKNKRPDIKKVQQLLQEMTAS
Conditions: read-out: %-inhibition at 1 µmol/L, IRAK4.

The target in assay [6] is panel of 255 wild-type kinases (Homo sapiens, UniProt Q9UBS0). Conditions: read-out: %-inhibition, p70S6Kβ.
The target of assay [7] is panel of 255 wild-type kinases (Homo sapiens, UniProt Q9BYP7). Conditions: read-out: %-inhibition at 1 µmol/L, WNK3.
The mark [8] stands for this setting: kinase PDHK4, 1 µmol/L single concentration.
[9] abbreviates: kinase EPHA8, 1 µmol/L single concentration.
[10] abbreviates: NDR1, 1 µmol/L single concentration.
[11] abbreviates: kinase EPHB3, 1 µmol/L single concentration.
Where [12] appears, read: kinase IRAK4, 1 µmol/L single concentration.
Where [13] appears, read: p70S6Kβ, 1 µmol/L single concentration.
[14] abbreviates: kinase WNK3, 1 µmol/L single concentration.

`Cc1nc(NC(=O)N2CCC[C@H]2C(N)=O)sc1-c1ccnc(C(C)(C)C(F)(F)F)c1` [alpelisib]: the inhibition at 1 µM was 0.0757% in assay [1] (setting [8]); -6.59% in assay [2] (setting [9]); 0.245% in assay [3] (setting [10]); -0.582% in assay [4] (setting [11]); -3.77% in assay [5] (setting [12]); 4.37% in assay [6] (setting [13]). Further, in assay [7] (setting [14]), the inhibition at 1 µM is -3%.

As for `Cn1cc(-c2cc3c(N4CCN(c5ncc([C@@](C)(N)c6ccc(F)cc6)cn5)CC4)ncnn3c2)cn1` [avapritinib], the inhibition at 1 µM in assay [1] (setting [8]) was 5.61%; in assay [2] (setting [9]) it was 73%; in assay [3] (setting [10]), -1.28%; in assay [4] (setting [11]) it was 3%; in assay [5] (setting [12]) it was 12%; in assay [6] (setting [13]), 6%. The inhibition at 1 µM in assay [7] (setting [14]) was -0.0892%.

Regarding `Cn1cnc2c(F)c(Nc3ccc(Br)cc3F)c(C(=O)NOCCO)cc21` [binimetinib], the inhibition at 1 µM in assay [1] (setting [8]) is -0.429%; in assay [2] (setting [9]), 2.68%; in assay [3] (setting [10]) it was -1.86%; in assay [4] (setting [11]) it was 3.28%; in assay [5] (setting [12]), 1.26%; in assay [6] (setting [13]) it was 1.09%. Moreover, the inhibition at 1 µM in assay [7] (setting [14]) was -2.67%.

Consider `CNC(=O)c1ccc(-c2cnc3ncc(Cc4ccc5ncccc5c4)n3n2)cc1F` [capmatinib], for which the inhibition at 1 µM in assay [1] is 0.789%; in assay [2], -14%; in assay [3], -0.897%; in assay [4] it was 0.192%; in assay [5] it was -0.569%; in assay [6] it was 12%. The inhibition at 1 µM in assay [7] was -1.77%.

Turning to `COc1cc2ncnc(Nc3ccc(F)c(Cl)c3)c2cc1NC(=O)/C=C/CN1CCCCC1` [dacomitinib], the inhibition at 1 µM in assay [1] (setting [8]) is 3%; in assay [2] (setting [9]), 59%; in assay [3] (setting [10]) it was -0.0726%; in assay [4] (setting [11]), 2%; in assay [5] (setting [12]) it was 19%; in assay [6] (setting [13]), -0.889%. The inhibition at 1 µM in assay [7] (setting [14]) is -2.62%.

Take `C[C@H](Nc1ncnc2nc[nH]c12)c1cc2cccc(Cl)c2c(=O)n1-c1ccccc1` [duvelisib]: the inhibition at 1 µM in assay [1] (setting [8]) was 3%; in assay [2] (setting [9]), -7%; in assay [3] (setting [10]), 0.434%; in assay [4] (setting [11]) it was 4%; in assay [5] (setting [12]), 1.13%; in assay [6] (setting [13]) it was 2.47%. For the same compound, the inhibition at 1 µM in assay [7] (setting [14]) is -0.718%.

`COC(=O)N[C@@H](C)CNc1nccc(-c2cn(C(C)C)nc2-c2cc(Cl)cc(NS(C)(=O)=O)c2F)n1` [encorafenib]: the inhibition at 1 µM in assay [1] (setting [8]) is -2.11%; in assay [2] (setting [9]) it was 16%; in assay [3] (setting [10]), 1.12%; in assay [4] (setting [11]), 4%; in assay [5] (setting [12]), -1.14%; in assay [6] (setting [13]) it was 8%. The inhibition at 1 µM in assay [7] (setting [14]) is -1.55%.

Regarding `CN1CCN(c2ccc(C(=O)Nc3n[nH]c4ccc(Cc5cc(F)cc(F)c5)cc34)c(NC3CCOCC3)c2)CC1` [entrectinib], the inhibition at 1 µM was 3.42% in assay [1] (setting [8]); 55% in assay [2] (setting [9]); 49% in assay [3] (setting [10]); 8% in assay [4] (setting [11]); 8% in assay [5] (setting [12]); 0.699% in assay [6] (setting [13]). Besides, in assay [7] (setting [14]), the inhibition at 1 µM came to 8.51%.

Take `CCc1nc(C(N)=O)c(Nc2ccc(N3CCC(N4CCN(C)CC4)CC3)c(OC)c2)nc1NC1CCOCC1` [gilteritinib]: the inhibition at 1 µM in assay [1] (setting [8]) came to 3%; in assay [2] (setting [9]), 66%; in assay [3] (setting [10]), 68%; in assay [4] (setting [11]) it was 8%; in assay [5] (setting [12]) it was 79%; in assay [6] (setting [13]), 23%. Besides, in assay [7] (setting [14]), the inhibition at 1 µM was determined as 5%.

`CCN1CCN(c2ccc(Nc3cc(N(C)C(=O)Nc4c(Cl)c(OC)cc(OC)c4Cl)ncn3)cc2)CC1` [infigratinib]: the inhibition at 1 µM in assay [1] (setting [8]) is -1.46%; in assay [2] (setting [9]), -10%; in assay [3] (setting [10]), 1.4%; in assay [4] (setting [11]), -1%; in assay [5] (setting [12]), -1.22%; in assay [6] (setting [13]) it was 5.43%. In assay [7] (setting [14]), the inhibition at 1 µM stood at 1.62%.

In the case of `O=C(Nc1cnn2ccc(N3CCC[C@@H]3c3cc(F)ccc3F)nc12)N1CC[C@H](O)C1` [larotrectinib], the inhibition at 1 µM in assay [1] (setting [8]) is 2%; in assay [2] (setting [9]), -9%; in assay [3] (setting [10]) it was -2.75%; in assay [4] (setting [11]), -0.506%; in assay [5] (setting [12]) it was 1.67%; in assay [6] (setting [13]), 4.22%. For the same compound, in assay [7] (setting [14]), the inhibition at 1 µM is -0.6%.

In the case of `C[C@H]1Oc2cc(cnc2N)-c2c(nn(C)c2C#N)CN(C)C(=O)c2ccc(F)cc21` [lorlatinib], the inhibition at 1 µM in assay [1] (setting [8]) is -0.664%; in assay [2] (setting [9]), 6%; in assay [3] (setting [10]), 3.5%; in assay [4] (setting [11]) it was 13%; in assay [5] (setting [12]) it was -1.47%; in assay [6] (setting [13]), 11%. In assay [7] (setting [14]), the inhibition at 1 µM came to 6%.
